The text below walks through data of paper PMC4573514, “Identification and characterization of [6]-shogaol from ginger as inhibitor of vascular smooth muscle cell proliferation” (Molecular Nutrition & Food Research, 2015).

One data set has as its system HUVECtert. Put plainly: Resazurin conversion assay in endothelial cells. In kind it is cell-based, human. The settings on record: for Resazurin metabolic conversion in HUVECs (endothelial viability/proliferation): HUVECtert, 48 h, n.s. = no significant difference, up to stated concentration. On the procedure:
VSMC were seeded in 96-well plates at 5 × 10^3 cells/well. After 24 h, cells were serum-starved for 24 h to render them quiescent. Quiescent cells were pretreated for 30 min with ginger extract, compounds, or vehicle (0.1% DMSO) as indicated, and subsequently stimulated for 48 h with PDGF-BB (20 ng/mL). […] Total metabolic activity was measured by monitoring the increase in fluorescence at a wavelength of 590 nm using an excitation wavelength of 535 nm in a 96-well plate reader (Tecan GENios Pro). HUVECtert cells,[20] were seeded in 96-well plates at 5 × 10^3 cells/well. After 24 h, HUVECtert cells were treated with compounds or vehicle (0.1% DMSO) as indicated and incubated for 48 h. Then, cells were washed with PBS and incubated in culture medium containing 10 μg/mL resazurin for 2 h. The detection step is performed as described above.
(In general: The colour change of resazurin is a common sign of viable cells or microbes.)

For data set [1], the system named is VSMC. Put plainly: Resazurin conversion assay, PDGF-BB-induced VSMC proliferation. In kind it is cell-based, rat. The following applies: for IC50: VSMC. On the procedure: VSMC were seeded in 96-well plates at 5 × 10^3 cells/well. After 24 h, cells were serum-starved for 24 h to render them quiescent. Quiescent cells were pretreated for 30 min with ginger extract, compounds, or vehicle (0.1% DMSO) as indicated, and subsequently stimulated for 48 h with PDGF-BB (20 ng/mL). To measure the number of metabolically active VSMC by resazurin conversion,[19], cells were washed with PBS and incubated in serum-free medium containing 10 μg/mL resazurin for 2 h. Total metabolic activity was measured by monitoring the increase in fluorescence at a wavelength of 590 nm using an excitation wavelength of 535 nm in a 96-well plate reader (Tecan GENios Pro). HUVECtert cells,[20] were seeded in 96-well plates at 5 × 10^3 cells/well. After 24 h, HUVECtert cells were treated with compounds or vehicle (0.1% DMSO) as indicated and incubated for 48 h. Then, cells were washed with PBS and incubated in culture medium containing 10 μg/mL resazurin for 2 h. The detection step is performed as described above.

Data set [2] deals with VSMC. Put plainly: Crystal violet biomass staining, PDGF-BB-stimulated VSMC. It is filed as cell-based. The following applies: Rattus norvegicus, PDGF-BB 20 ng/mL, 48 h. On the procedure:
VSMC were seeded in 96-well plates at 5 × 10^3 cells/well. Twenty-four hours later, cells were serum starved for 24 h to render them quiescent. Quiescent cells were pretreated for 30 min with ginger extract, compounds, or vehicle (0.1% DMSO) as indicated and subsequently stimulated for 48 h with PDGF-BB (20 ng/mL). To determine the total biomass by crystal violet staining, cells were then incubated in 100 μL of crystal violet staining solution (0.5% crystal violet, 20% methanol) for 15 min and then washed with ddH2O. After drying, 100 μL EtOH/Na-citrate solution were added (EtOH: 0.1M Na-citrate = 1:1) and the absorbance of the samples was measured at 595 nm in a 96-well plate reader (Tecan sunrise).

In data set [3] the test system is VSMC. The data set is described as follows: Assessment of cytotoxicity by LDH release. In kind it is cell-based. The settings on record: PDGF-BB 20 ng/mL, 24 h, n.s. = no significant difference, up to stated concentration. On the procedure: VSMC were seeded in 96-well plates at 5 × 10^3 cells/well. Twenty-four hours later, cells were serum starved for 24 h to render them quiescent. Quiescent cells were pretreated for 30 min with compounds, or vehicle (0.1% DMSO) as indicated, and subsequently stimulated for 24 h with PDGF-BB (20 ng/mL). Loss of cell membrane integrity as a sign for cell death can be quantified by the release of the soluble cytosolic protein lactate dehydrogenase (LDH),[23]. For this, the supernatant of the treated cells was assessed for LDH activity. For estimation of the total LDH, identically treated samples were incubated for 45 min in the presence of 1% Triton X-100. The released and total LDH enzyme activity was measured for 30 min at the dark in the presence of 4.5 mg/mL lactate, 0.56 mg/mL NAD+, 1.69 U/mL diaphorase, 0.004% w/v BSA, 0.15% w/v sucrose, and 0.5 mM 2-p-iodophenyl-3-nitrophenyl tetrazolium chloride. The enzyme reaction was stopped with 1.78 mg/mL oxymate and the absorbance was measured at 490 nm. Potential effects on cell viability were estimated as percentage of extracellular LDH enzyme activity. The cytotoxic natural product digitonin (100 μg/mL) was used as a positive control.
(In general: LDH in the medium is a marker of cell lysis.)

Data set [4] concerns VSMC. Put plainly: BrdU incorporation assay (de novo DNA synthesis). In kind it is cell-based. The settings on record: Rattus norvegicus, PDGF-BB 20 ng/mL, read-out: Inhibition of PDGF-stimulated DNA synthesis, BrdU incorporation (IC50). On the procedure:
VSMC were seeded in 96-well plates at 5 × 10^3 cells/well. Twenty-four hours later, cells were serum starved for 24 h to render them quiescent. Quiescent cells were pretreated for 30 min with compounds, or vehicle (0.1% DMSO) as indicated and subsequently stimulated with PDGF-BB (20 ng/mL). To estimate de novo DNA synthesis in VSMC [21],[22], BrdU was added 2 h after PDGF stimulation, and the incorporation amount was determined 22 h afterwards according to the manufacturer's instructions (Roche Diagnostics).
On the technique in general: Dividing cells build labelled thymidine or BrdU into new DNA.

For data set [5], the system named is VSMC. Put plainly: Cell-cycle analysis by PI staining and flow cytometry. It is filed as cell-based, rat. The settings on record: 10 μM, PDGF-BB 20 ng/mL 16 h, PI stained nuclei. As to the method: VSMC were seeded in 12-well plates at 1 × 10^4 cells/well. Twenty-four hours later, cells were serum starved for 24 h to render them quiescent. Quiescent cells were preincubated with [6]-shogaol (10 μM) or vehicle ([…]) for 30 min. PDGF-BB (20 ng/mL) was added, and 16 h later cells were trypsinized, washed once with PBS, and resuspended in a hypotonic propidium iodide (PI) solution containing 0.1% v/v Triton X-100, 0.1% w/v sodium citrate, and 50 μg/mL PI. After incubation at 4°C overnight, PI-stained nuclei were analyzed by flow cytometry (excitation 488 nm, emission 585 nm; FACScalibur; BD Biosciences, Germany).

In a further data set the test system is Nrf2/HO-1. The data set is described as follows: Immunoblot analysis of HO-1 in WT and Nrf2-/- mouse embryonic fibroblasts. It is filed as cell-based. The settings on record: 10 or 3 μM. As to the method:
(§1) Cells (MEF or VSMC) were seeded onto six-well plates ((3–4) × 10^5 cells/well). Twenty-four hours later, MEF were treated with vehicle (0.1% DMSO) or [6]-shogaol at the indicated concentrations for 20 h; VSMC were serum starved for another 24 h, then quiescent cells were pretreated for 30 min with vehicle (0.1% DMSO) or [6]-shogaol as indicated and subsequently stimulated for 20 h with PDGF-BB (20 ng/mL). Then, cells were lysed and protein extracts were subjected to SDS-PAGE electrophoresis and immunoblot analysis as described,[22]. Proteins were visualized using enhanced chemiluminescence reagent and an LAS-3000 luminescent image analyzer (Fujifilm) with AIDA software (Raytest) for densitometric evaluation.

Details of data set [6]: method as in PMID 19201263. The following applies: rats, single oral administration of ginger oleoresin 300 mg/kg; ref [39]; cited from earlier work.
The next data set has as its system HO-1. The data set is described as follows: Immunoblot analysis of HO-1 expression in VSMC. It is filed as cell-based, rat. The following applies: 3 and 10 μM, PDGF-BB 20 h. On the procedure: as §1
Setting [7] is: Rattus norvegicus, 48 h, PDGF-BB 20 ng/mL, 48 h, read-out: Resazurin metabolic conversion (IC50).

“Also recorded” adds a separate entry of the source.

For the compound `CCCCCCCC(O)CCc1ccc(O)c(OC)c1` (racemic) [rac-[6]-Dihydroparadol, rac-[6]-dihydroparadol], the “Resazurin metabolic conversion in HUVECs (endothelial viability/proliferation)” value in the data set with HUVECtert is on record as “n.s. (up to 30 μM)”. The results for the IC50 in the data set with VSMC [1] (setting [7]) and in the data set on VSMC [2] were 10 µM and 4.11 µM, respectively. In addition, the “Cell death (LDH release)” value in the data set on VSMC [3] was “n.s. (up to 30 μM)”.
`COc1cc(CCC(C)=O)ccc1O` [Zingerone, zingerone]: the IC50 in the data set on VSMC [1] (setting [7]) was greater than 100 µM.
On to `CCCCC[C@H](O)CC(=O)CCc1ccc(O)c(OC)c1` [[6]-Gingerol, [6]-gingerol], for which the “Resazurin metabolic conversion in HUVECs (endothelial viability/proliferation)” value with HUVECtert was “n.s. (up to 30 μM)”. Besides, the IC50 in the data set with VSMC [1] (setting [7]) amounted to 13.2 µM; with VSMC [2], 8.77 µM. Besides, the “Cell death (LDH release)” value in the data set on VSMC [3] was “n.s. (up to 100 μM)”.
In the same order, the values of `CCCCCCCC(=O)CCc1ccc(O)c(OC)c1` [[6]-Paradol, [6]-paradol] are “n.s. (up to 30 μM)”, 5.3 µM, 3.34 µM and “n.s. (up to 30 μM)”.
For the compound `CCCCCC=CC(=O)CCc1ccc(O)c(OC)c1` [[6]-Shogaol, [6]-shogaol], the IC50 was 3 µM in the data set with VSMC [4]; 2.7 µM in the data set on VSMC [1] (setting [7]); 2.72 µM with VSMC [1] (PDGF-BB 20 ng/mL, 48 h, read-out: Resazurin metabolic conversion (IC50)); 1.13 µM with VSMC [2]. Moreover, in the data set with VSMC [5], the Cell-cycle distribution result is listed as “counteracted the PDGF-induced transition of VSMC from the G0/G1 cell-cycle phase to the G2/M phase”. Also, the “Resazurin metabolic conversion in HUVECs (endothelial viability/proliferation)” value in the data set on HUVECtert was “n.s. (up to 10 μM)”; with HUVECtert (listed as [6]-shogaol), “did not interfere with endothelial cell proliferation; also recorded: did obviously not impair endothelial viability and proliferation”. In addition, the “HO-1 induction in WT vs Nrf2-/- fibroblasts” value with Nrf2/HO-1 is on record as “strictly Nrf2-dependent increase of HO-1”. For the same compound, the “Antiproliferative effect in the presence of HO-1 inhibitor tin protoporphyrin IX” value in the data set with VSMC [1] ([6]-shogaol 3 μM, SnPP 10 μM pretreatment 1 h, resazurin conversion) is reported as “lost its antiproliferative activity; also recorded: loses its antiproliferative influence on VSMC”. In addition, the Peak plasma concentration in [6] was 0.11 µg/L. The “Peak plasma concentration (converted)” value in data set [6] was 0.40 µM. For the same compound, the “Cell death (LDH release)” value was “n.s. (up to 10 μM)” in the data set with VSMC [3] and “did not exhibit cytotoxicity toward VSMC” in the data set on VSMC [3] (listed as [6]-shogaol). In addition, the “HO-1 levels compared to vehicle treated cells” value in the data set with HO-1 is “significantly elevated HO-1 levels”.
Take `CC(=O)O[C@H]1C(=O)[C@@]2(C)[C@H]([C@H](OC(=O)c3ccccc3)[C@]3(O)C[C@H](OC(=O)[C@H](O)[C@@H](NC(=O)c4ccccc4)c4ccccc4)C(C)=C1C3(C)C)[C@]1(OC(C)=O)CO[C@@H]1C[C@@H]2O` [paclitaxel, reference compound]: the IC50 worked out at 0.004 µM in the data set with HUVECtert (Homo sapiens, Endothelial cell, endothelial cells, data not shown, read-out: Anti-proliferative effect in endothelial cells (IC50)) and 0.108 µM in the data set with VSMC [1] (Rattus norvegicus, data not shown, read-out: Anti-proliferative effect in VSMC (IC50)).
